According to patent US11643428B2, “Therapeutic drug for neurodegenerative disease and application thereof” (SHANGHAI PHARMACEUTICALS HOLDING CO., LTD., priority 2018, dated 2023):

What was measured:
[1] = test system: APP/PS1 transgenic mice (AD mice); assay: Morris water maze test; assay type: in vivo, mouse; settings: 10 mg/kg intragastrically daily, 90 days, vs model group
Procedure: Twenty 5-6 months aged, male APP/PS1 transgenic mice (AD mice) were selected, and were divided into a model group and a polysaccharide administration group randomly by random number table method. PL201 was intragastrically administered daily (10 mg/kg mouse body weight), meanwhile, 10 non-transgenic mice were used as a negative control group (without PL201 administration). After 90 days of consecutive administration, Morris water maze behavior test was used to detect the effects of PL201 on learning and cognitive function of APP/PS1 mice.
Classic Morris water maze test procedure was used in the test, which includes two parts: i.e., the place navigation task and the spatial probe task. The test lasted for 7 days, and the spatial probe task was added at Day 4 and Day 7.
It can be seen from the test results in FIG. 1 that the escape latency of all the three groups of animals after 3 days of training was shortened in the place navigation task, illustrating that mice in each group can successfully complete the spatial learning task of the water maze. The escape latency was used as a test indicator.

Human neural stem cells = assay: Mitochondrial membrane potential, JC-1 staining; assay type: cell-based; settings: Aβ-treated cells
Procedure: Mitochondrial membrane potential is the main parameter of mitochondrial function, and mitochondrial dysfunction is a prominent feature of AD brain. In this example, the inventors have explored whether PL201 has the effect of improving mitochondrial function by detecting the level of cell mitochondrial membrane potential of human neural stem cells.
Mitochondria was stained with JC-1 for 20 minutes and washed with washing buffer, then immunofluorescence analysis was performed.

AD mice [2] = assay: Aβ plaques in brain, thioflavin S staining; assay type: in vivo, mouse; settings: 10 mg/kg intragastrically, 90 days, vs control group
Procedure: (§1) The inventors conducted PL201 administration experiments on AD mice (5-6 months aged AD mice were selected). Each mouse was intragastrically administrated 100 μl PL201, and the dosage was 10 mg/kg mouse body weight. Moreover, mice in the control group were administrated 100 μl water once daily for 90 days, and from Day 60 were intraperitoneally injected with 5-bromo-2′-deoxyuridine (BrdU) of 50 mg/kg mouse body weight once daily for 7 days. After 90 days of administration, the mice were perfused with PFA after anesthesia, and the whole brain was taken for further experiments.
The inventors performed frozen sectioning coronally with a thickness of 30 μm on the whole brain sample of AD mice after administration in example 2, and the slices were stained with thioflavin S and DAPI. The stained brain slices were then photographed with Olympus FV100i or Leica SP-8.

MPTP mice model = assay: Pole-climbing test in MPTP model; assay type: in vivo, mouse; settings: PL201+MPTP vs NS+MPTP group, 50 mg intragastrically once a day, day 3 of the experiment
Procedure: The mice were randomly divided into 4 groups: a group in which the mice was administrated with normal saline (NS), a MPTP model group in which the mice was intragastrical administrated with normal saline ([…]), a group in which the mice was intragastrical administrated with 50 mg of compound PL201 (PL201), and a MPTP model group in which the mice was intragastrical administrated with compound PL201 (PL201+MPTP).
11 animals were set in the group in which the mice was administrated with normal saline (NS), 14 animals were set in the MPTP model group in which the mice was intragastrical administrated with normal saline (NS+MPTP), 4 animals were set in the group in which the mice was intragastrically administrated with 50 mg of compound PL201 (PL201), 15 animals were set in the MPTP model group in which the mice was intragastrically administrated with the compound PL201 (PL201+MPTP). […]
On Day 3 of the experiment, the pole-climbing test of mice was carried out to evaluate the motor coordination ability of the mice. […] The time taken by the mice to turn from head upwards to head downwards completely was recorded as the time to turn around, and the time taken by the mice from moving downwards to all limbs reaching the bottom of the pole was recorded as the time to climb down. Time exceeded 30 seconds was recorded as 30 seconds. […]

AD mice [3] = assay: Neurogenesis in vivo, BrdU/NeuN staining of hippocampus; set-up: species or system mouse; settings: 10 mg/kg intragastrically once daily, 90 days, vs control group
Procedure: as §1
For the obtained whole brain, a mature neuron marker NeuN in the hippocampus of mice was detected: The brain of mouse which had been perfused with PFA was then fixed in 4% PFA for 24 hours, and then kept for 72 hours in 30% sucrose for cryoprotection. After the treatment was completed, the region of cerebellum was removed, and the olfactory bulb was placed upright on the filter paper and frozen at −80° C. for at least 24 hours. The frozen sectioning was performed vertically and longitudinally with a thickness of 30 μm. A total of 8×9×=72 slices (2.16 mm) including DG portion were cut and arranged in slicing order. One slice was taken from every 8 slices and combined into a group of brain slices for staining. […] The number of single or double positive cells was analyzed by Image Pro Plus software. […]

For `COc1cc(/C=C/C(=O)OC2OC(C)C(O)C(O)C2O)ccc1O` [PL201, (α-L-rhamnopyranosyl) ferulic acid ester], the “learning and memory abilities (escape latency)” value [1] was “significantly improved”, the mitochondrial membrane potential (Human neural stem cells) was “mitigated the deleterious effect of Aβ to a lesser extent” and the “Aβ plaques in brain” value (AD mice [2]) was “less Aβ plaques”. For the same molecule, the “time to climb down” value (MPTP mice model) was “reduced”, the “time to turn around” value (MPTP mice model) was “reduced” and the “BrdU/NeuN double-positive newborn neurons in hippocampus” value (AD mice [3]) was “more BrdU/NeuN double-positive newborn neurons”.
